For data set [1], the target named is T1, H-PGDS (Homo sapiens (Human), UniProt O60760). The data set is described as follows: H-PGDS Fluorescence Polarization Binding Assay (FPBA). The note with it: H-PGDS-MBP fusion enzyme, fluorescent probe, reduced glutathione 5 mM, 60-90 minutes at room temperature, 96-well format. As to the method:
H-PGDS Fluorescence Polarization Binding Assay This assay essentially is available from Cayman Chemical Company as Catalog item #600007. The test data reported for the aforementioned Examples (H-PGDS FPBA IC50) were generated using a 96-well, instead of the 384-well, format. […] Assays were performed in 96-well microtiter plates in 100 μL of total sample volume. Excitation and emission wavelengths appropriate for the employed detection analyte were used. […] Twelve clean microfuge tubes were labeled A1 through A12. […] Dimethyl sulfoxide (50 μL) was added to each of tubes A1 through A11. The HQL-79 control solution was serially diluted by removing 50 μL from tube A12 and placing it in tube A11 with subsequent thorough mixing of the contents of tube A11. Next, 50 μL was removed from tube A11 and was placed into tube A10 with subsequent thorough mixing of the contents of tube A10. This process was repeated for tubes A9 through A2. […] A test compound may be dissolved in DMSO, ethanol, or methanol at several concentrations when the titration endpoint is unknown. […] Assay cocktail (95 μL) was added to each plate well. DMSO (5 μL) from microfuge tube A1 was added to each plate well A1 and B1. Positive control solution (5 μL) from microfuge tube A2 was added to each plate well A2 and B2. Positive control solution (5 μL) from microfuge tube A3 was added to each plate well A3 and B3. This procedure was continued until all the positive control standard dilutions were aliquoted. Test compound solutions (5 μL) were added to the wells. […] The IC50 for a particular test compound was obtained by performing a full concentration titration versus a full concentration titration of positive control. Comparison of a single concentration of a test compound to the maximum binding well provided an assessment of the relative affinity of the test compound for H-PGDS-MBP. The plate was covered and incubated for 60-90 minutes at room temperature. The FP signal is stable for at least two hours. […] The measurements were taken in the fluorescent polarization mode with the z-height set to the middle of the well and the G-factor set to 1.13 on a Tecan Safire 2 reader.
On the technique in general: Polarisation of emitted light reports the rotation of a fluorescent probe.

Data set [2] has as its target T1, H-PGDS. The data set can be described thus: H-PGDS Inhibitor Enzyme Immunoassay (EIA). The class given is biochemical. The note with it: 25 ng H-PGDS, 40 μM PGH2, 1 mM GSH; PGD2 quantified by EIA. As to the method: H-PGDS Inhibitor Enzyme Immunoassay
The assay detects and measures PGD2 generated by H-PGDS. The prostanoid product is quantified via enzyme immunoassay (EIA) using a specific PGD2 antibody.
The assay is carried out by the following steps: • 1. Inhibitor screening is performed in 100 mM Tris-HCl, pH 8.0 containing 1 mM GSH, 1 mM MgCl2, 4% inhibitor/DMSO, 40 μM PGH2 and 25 ng of PGDS in a total volume of 125 μL. • 2. A reaction mixture containing 100 mM Tris-HCl, pH 8.0, 1 mM GSH, 1 mM MgCl2, 25 ng H-PGDS and 4% inhibitor or DMSO (uninhibited reaction) is preincubated at 25° C. for 10 minutes. • 3. Reactions are initiated using 5 μL of PGH2 and quenched every 15 seconds for one minute. Reactions are quenched by taking 10 μL of reaction mixture and adding to 490 μL of 100 mM phosphate buffer containing 0.1% BSA, 400 mM NaCl, 1 mM EDTA, 20 mM FeCl2, 10% 1N HCl, and 0.01% azide to prevent the non-enzymatic formation of PGD2 from PGH2. The FeCl2 serves the purpose of reducing PGH2 to 12-HHT. (Quench buffer is kept on ice at all times). • 4. Quenched samples (5 μL) are further diluted 100 fold in 495 μL of 100 mM phosphate buffer containing 0.1% BSA, 400 mM NaCl, 1 mM EDTA, and 0.01% azide for the PGD2 EIA assay. (Dilution buffers are kept on ice at all times).
The final 5000 fold diluted samples are analyzed following the protocol outlined in Cayman Chemical's commercially available PGD2 EIA kit (Cat. #512021). 50 μL of diluted sample is analyzed at least in duplicate in the EIA assay and the amount of PGD2 formed is quantified using a standard curve.

Structures are written as SMILES.

T1 sequence (O60760 whole entry, the tested form may be a part): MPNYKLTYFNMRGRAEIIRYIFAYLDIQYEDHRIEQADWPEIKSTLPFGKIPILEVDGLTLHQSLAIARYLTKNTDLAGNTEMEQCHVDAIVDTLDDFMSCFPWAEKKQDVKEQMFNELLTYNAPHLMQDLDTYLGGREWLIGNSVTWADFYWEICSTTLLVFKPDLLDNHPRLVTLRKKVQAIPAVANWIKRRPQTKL

Consider `c1ccc(Cc2ncc(-c3cnc(-c4ccccc4)nc3)[nH]2)cc1` [Example 14, 5-(2-benzyl-1H-imidazol-5-yl)-2-phenylpyrimidine], for which the melting point (as a rule, the temperature, or range, at which the solid turns liquid) worked out at 235 °C. In addition, the IC50 (usually the midpoint of a concentration-inhibition curve) on H-PGDS [1] is 625 nM. This molecule displayed an IC50 against H-PGDS [2] of 59 nM.
In the same order, the values of `Fc1cccc(-c2ncc(-c3cnc(-c4ccccc4)nc3)[nH]2)c1` [Example 8, 5-(2-(3-fluorophenyl)-1H-imidazol-5-yl)-2-phenylpyrimidine] are 221 °C, 188 nM and 4 nM.
`Fc1cccc(-c2ncc(-c3cnc(-c4ccccc4)[nH]3)cn2)c1` [Example 6, 2-(3-fluorophenyl)-5-(2-phenyl-1H-imidazol-5-yl)pyrimidine] gave a melting point of 240 °C. On H-PGDS [1], this molecule yielded an IC50 of 280 nM. This molecule registered an IC50 against H-PGDS [2] of 47 nM.
The like results for `Cn1c(-c2cnc(-c3ccccc3)nc2)cnc1-c1ccccc1` [Example 3, 5-(1-methyl-2-phenyl-1H-imidazol-5-yl)-2-phenylpyrimidine] were, in that order, 211 °C, 625 nM and 250 nM.
The like results for `c1ccc(-c2ccc(-c3cnc(-c4ccccc4)[nH]3)cn2)cc1` [Example 2, 2-phenyl-5-(2-phenyl-1H-imidazol-5-yl)pyridine] were, in that order, 206 °C, 480 nM and 97 nM.
The like results for `c1ccc(Oc2ncc(-c3cnc(-c4cccnc4)[nH]3)cn2)cc1` [Example 40, 2-phenoxy-5-(2-(pyridin-3-yl)-1H-imidazol-4-yl)pyrimidine] were, in that order, 236 °C, 625 nM and 370 nM.
In the case of `c1ccc(-c2ncc(-c3cnc(-c4ccccc4)[nH]3)cn2)cc1` [Example 1, 2-phenyl-5-(2-phenyl-1H-imidazol-5-yl)pyrimidine], the melting point is 253 °C. The molecule further displayed an IC50 on H-PGDS [1] of 250 nM. Moreover, the IC50 at H-PGDS [2] stood at 12 nM.
For the molecule `CN1CCN(C(=O)c2cc(-c3cnc(Oc4ccccc4)nc3)[nH]n2)CC1` [Example 57, (4-methylpiperazin-1-yl)(5-(2-phenoxypyrimidin-5-yl)-1H-pyrazol-3-yl)methanone], the IC50 turned out to be 650 nM on H-PGDS [1] and 420 nM against H-PGDS [2].
Turning to `c1ccc(Cn2cnc(-c3cnc(-c4ccccc4)nc3)c2)cc1` [Example 34, 5-(1-benzyl-1H-imidazol-4-yl)-2-phenylpyrimidine], the melting point was 195 °C. This molecule also showed an IC50 on H-PGDS [1] of 4000 nM.
Turning to `c1ccc(-c2ncc(-c3nnc(-c4ccccc4)[nH]3)cn2)cc1` [Example 49, 2-phenyl-5-(5-phenyl-4H-1,2,4-triazol-3-yl)pyrimidine], the melting point was in the range of 280 to 282 °C. This molecule also had an IC50 at H-PGDS [1] of 1000 nM. Besides, on H-PGDS [2], the midpoint of inhibition, the IC50, lay at 84 nM.
In the same order, the values of `Cc1nc(-c2ccccc2)[nH]c1-c1cnc(-c2ccccc2)nc1` [Example 4, 5-(4-methyl-2-phenyl-1H-imidazol-5-yl)-2-phenylpyrimidine] are 138 °C, 450 nM and 82 nM.
For `c1ccc(-c2ncc(-c3nnc(-c4cccnc4)[nH]3)cn2)cc1` [Example 50, 2-phenyl-5-(5-(pyridin-3-yl)-1H-1,2,4-triazol-3-yl)pyrimidine], the melting point lay in the range of 322 to 333 °C. In addition, the IC50 at H-PGDS [1] was 1000 nM.
Regarding `c1ccc(-c2ncc(-c3cnc(CCc4cccnc4)[nH]3)cn2)cc1` [Example 16, 2-phenyl-5-(2-(2-(pyridin-3-yl)ethyl)-1H-imidazol-5-yl)pyrimidine], the melting point was 113 °C. At H-PGDS [1], this molecule returned an IC50 of 300 nM.
The molecule `Fc1cccc(-c2ncc(-c3cnc(-c4cccnc4)[nH]3)cn2)c1` [Example 11, 2-(3-fluorophenyl)-5-(2-(pyridin-3-yl)-1H-imidazol-5yl)pyrimidine] registered a melting point of 309 °C. Further, the IC50 at H-PGDS [1] stood at 156 nM. In addition, the midpoint of inhibition on H-PGDS [2], the IC50, lay at 41 nM.
For `c1ccc(-c2ncc(-c3csc(-c4ccccc4)n3)cn2)cc1` [Example 48, 2-phenyl-4-(2-phenylpyrimidin-5-yl)thiazole], the melting point lay in the range of 214.4 to 216.1 °C. In addition, on H-PGDS [1], the IC50 was more than 20000 nM.
Turning to `c1ccc(-c2ncc(-c3csc(-c4cccnc4)n3)cn2)cc1` [Example 59, 4-(2-phenylpyrimidin-5-yl)-2-(pyridin-3-yl)thiazole], the melting point came to 319 °C. The same molecule returned an IC50 on H-PGDS [1] of 1000 nM. Moreover, at H-PGDS [2], half-maximal inhibition (IC50) was put at 150 nM.
In the same order, the values of `c1ccc(CN2CCC(c3ncc(-c4cnc(-c5ccccc5)nc4)[nH]3)CC2)cc1` [Example 19, 5-(2-(1-benzylpiperidin-4-yl)-1H-imidazol-5-yl)-2-phenylpyrimidine] are 223 °C, 80 nM and 6 nM.
As to `c1ccc(CN2CCCC(c3ncc(-c4cnc(-c5ccccc5)nc4)[nH]3)C2)cc1` (racemic) [Example 23, (±)-5-(2-(1-benzylpiperidin-3-yl)-1H-imidazol-5-yl)-2-phenylpyrimidine], the melting point amounted to 179 °C. The molecule also came in with an IC50 on H-PGDS [1] of 600 nM.
The molecule `COCCCNC(=O)c1csc(-c2cnc(-c3ccccc3)nc2)n1` [Example 64, N-(3-methoxypropyl)-2-(2-phenylpyrimidin-5-yl)thiazole-4-carboxamide] had a melting point of 134 to 136 °C. The molecule further had an IC50 on H-PGDS [1] of 3400 nM.
For the molecule `CCOC(=O)c1cc(-c2cnc(Oc3ccccc3)nc2)[nH]n1` [Example 54, ethyl 5-(2-phenoxypyrimidin-5-yl)-1H-pyrazole-3-carboxylate], the IC50 at H-PGDS [1] came out at 1300 nM; against H-PGDS [2], 130 nM.
`c1ccc(-c2ncc(-c3ncc(-c4ccccc4)[nH]3)cn2)cc1` [Example 44, 2-phenyl-5-(5-phenyl-1H-imidazol-2-yl)pyrimidine] came in with a melting point of 238 °C. At H-PGDS [1], this molecule came in with an IC50 of 2800 nM.
The like results for `c1ccc(Cc2nc(-c3cnc(-c4ccccc4)nc3)cs2)cc1` [Example 60, 2-benzyl-4-(2-phenylpyrimidin-5-yl)thiazole] were, in that order, 170 °C and more than 20000 nM.
In the same order, the values of `COc1ccc(-c2ncc(-c3cnc(-c4ccccc4)[nH]3)cn2)cc1OC` [Example 7, 2-(3,4-dimethoxyphenyl)-5-(2-phenyl-1H-imidazol-5-yl)pyrimidine] are 231 °C and 3500 nM.
In the same order, the values of `c1ccc(-c2ncc(-c3nnn[nH]3)cn2)cc1` [Example 43, 2-phenyl-5-(1H-tetrazol-5-yl)pyrimidine] are 237 °C and 2500 nM.
As for `O=C(c1cccnc1)N1CCC(c2nc(-c3cnc(-c4ccccc4)nc3)c[nH]2)CC1` [Example 20, (4-(4-(2-phenylpyrimidin-5-yl)-1H-imidazol-2-yl)piperidin-1-yl)(pyridin-3-yl)methanone], the melting point was found to be 234 °C. For the same molecule, the IC50 on H-PGDS [1] is 450 nM.
In the same order, the values of `c1ccc(Cc2ncc(-c3cnc(Oc4ccccc4)nc3)[nH]2)cc1` [Example 39, 5-(2-benzyl-1H-imidazol-4-yl)-2-phenoxypyrimidine] are 60 °C and 10000 nM.

These data come from patent publication US9126973B2, “Multiheteroaryl compounds as inhibitors of H-PGDS and their use for treating prostaglandin D2 mediated diseases” (Cayman Chemical Company, Incorporated, priority 2008, dated 2015).
